According to US20230021275A1, “Application of Nanosulfur in Tomato Fusarium Wilt Control” (Jiangnan University, priority 2021, published 2023):

Assays:
[1] = tested on: Fusarium oxysporum f sp. Lycopersici; experiment: Foliar application to tomatoes grown in infected soil (tomato fusarium wilt control); assay type: in vivo; conditions: foliar spraying 100 mg/L; for Fresh weight of above-ground part / Fresh weight of underground part / Incidence: 10 mL/plant, 6th and 8th week, 10th week
Excerpt: There were 5 levels of disease severity of tomatoes: 0: symptomless; 1: mildly stunted; 2: stunted; 3: leaves wilted and yellowed; and 4: dead. […] The highest disease severity level of tomatoes was Level 4. The total number of tomato plants in the treated group was 6. Test of biomass of above-ground part and underground part: Tomatoes were sampled destructively. The above-ground part and the underground part of the tomato were washed with ultrapure water three times. The above-ground part and the underground part of the tomato were dried up with filter paper. The above-ground part and the underground part were weighed using a balance. The obtained weights were respectively the biomass of the above-ground part and the underground part of the tomato. (1) Pathogenic bacteria (Fusarium oxysporum f sp. Lycopersici, the pathogen of tomato fusarium wilt) were added to dry soil at a concentration of 1×10^6 spores/g to obtain infected soil. (2) Tomato seeds were sowed in the infected soil. […] The cultivation was continued. In the meanwhile, tomato seeds were sowed in soil not infected with pathogenic bacteria, and cultivated normally with no sulfur solution applied, to obtain a healthy group. The cultivation of the tomatoes was continued until the 10th week. The tomatoes were examined for the disease severity. The tomatoes were sampled destructively. The fresh weights of the above-ground part and the underground part of the tomatoes were measured. The test results are as follows: (1) Pathogenic bacteria (F. oxysporum, the pathogen of tomato fusarium wilt) were added to dry soil at a concentration of 1×10^6 spores/g to obtain infected soil. (2) Tomato seeds were sowed in the infected soil. […] The cultivation was continued. In the meanwhile, tomato plants with no fertilizer applied were taken as the foliar disease group. When the tomatoes grew to the 10th week, the tomatoes were examined for the disease severity. The tomatoes were sampled destructively. The fresh weights of the above-ground part and the underground part of the tomatoes were measured.

F. oxysporum = experiment: Growth of pathogen colonies on PDA plates; assay type: cell-based; conditions: 100 mg/L
Excerpt: This may be because the nanosulfur could induce the systemic acquired resistance of plants and the control effect of the nanosulfur on the tomato fusarium wilt was better than the direct bactericidal effect thereof.

SMILES | Effect on fresh weights of above-ground and underground part (biomass) compared with the disease group [1] | Fresh weight of above-ground part [1] | Fresh weight of underground part [1] [b g] | Incidence [1] | Antibacterial effect relative to that of the 30-SNPs (F. oxysporum; 6 days) [times] | Reduction of the diameter of the pathogenic bacteria colonies (F. oxysporum; 6 days of exposure, compared with the foliar disease group) [%] | Effect on the incidence of tomato fusarium wilt compared with the disease group [1]
O=S(=O)([O-])[O-].[Na+].[Na+] [Sodium sulfate, sodium sulfate] | no significant effects | 5.5 ± 0.7 g·days | 1.7 ± 0.2 | 0.64 ± 0.10a |  |  | 
Cc1cc(O)no1 [Hymexazol, hymexazol] | significantly increased | 6.9 ± 0.9c g | 1.8 ± 0.5 | 0.42 ± 0.08cd | 3.05 | 34.5 | significantly reduced
